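Growth conditions: 96-well plates. Treatment: test compound, 48 hours, 5 concentrations. Analysis: linear interpolation between bracketing concentrations; unreached endpoints set to highest concentration. Definition used: TGI = concentration required for complete inhibition of growth.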
How the values were obtained:
Assay in all cases: NCI anticancer screen, dose series, 48 h
786-0 renal = tested on: 786-0 renal
A498 renal = tested on: A498 renal
A549 NSCLC = tested on: A549 NSCLC
ACHN renal = tested on: ACHN renal
BT-549 breast = tested on: BT-549 breast
CAKI-1 renal = tested on: CAKI-1 renal
CCRF-CEM leukemia = tested on: CCRF-CEM leukemia
COLO 205 colon = tested on: COLO 205 colon
DU-145 prostate = tested on: DU-145 prostate
EKVX NSCLC = tested on: EKVX NSCLC
HCC-2998 colon = tested on: HCC-2998 colon
HCT-116 colon = tested on: HCT-116 colon
HCT-15 colon = tested on: HCT-15 colon
HL-60(TB) leukemia = tested on: HL-60(TB) leukemia
HOP-62 NSCLC = tested on: HOP-62 NSCLC
HOP-92 NSCLC = tested on: HOP-92 NSCLC
HS 578T breast = tested on: HS 578T breast
HT29 colon = tested on: HT29 colon
IGROV1 ovarian = tested on: IGROV1 ovarian
K-562 leukemia = tested on: K-562 leukemia
KM12 colon = tested on: KM12 colon
LOX IMVI melanoma = tested on: LOX IMVI melanoma
M14 melanoma = tested on: M14 melanoma
MALME-3M melanoma = tested on: MALME-3M melanoma
MCF7 breast = tested on: MCF7 breast
MDA-MB-231 breast = tested on: MDA-MB-231 breast
MDA-MB-435 = tested on: MDA-MB-435
MDA-N = tested on: MDA-N
MOLT-4 leukemia = tested on: MOLT-4 leukemia
NCI-H23 lung = tested on: NCI-H23 lung
NCI-H460 lung = tested on: NCI-H460 lung
NCI-H522 lung = tested on: NCI-H522 lung
NCI/ADR-RES ovarian = tested on: NCI/ADR-RES ovarian
OVCAR-3 ovarian = tested on: OVCAR-3 ovarian
OVCAR-4 ovarian = tested on: OVCAR-4 ovarian
OVCAR-5 ovarian = tested on: OVCAR-5 ovarian
OVCAR-8 ovarian = tested on: OVCAR-8 ovarian
PC-3 prostate = tested on: PC-3 prostate
RPMI-8226 leukemia = tested on: RPMI-8226 leukemia
RXF 393 renal = tested on: RXF 393 renal
SF-268 CNS = tested on: SF-268 CNS
SF-295 CNS = tested on: SF-295 CNS
SF-539 CNS = tested on: SF-539 CNS
SK-MEL-2 melanoma = tested on: SK-MEL-2 melanoma
SK-MEL-28 melanoma = tested on: SK-MEL-28 melanoma
SK-MEL-5 melanoma = tested on: SK-MEL-5 melanoma
SK-OV-3 ovarian = tested on: SK-OV-3 ovarian
SN12C renal = tested on: SN12C renal
SNB-19 CNS = tested on: SNB-19 CNS
SR leukemia = tested on: SR leukemia
SW-620 colon = tested on: SW-620 colon
T-47D breast = tested on: T-47D breast
TK-10 renal = tested on: TK-10 renal
U251 CNS = tested on: U251 CNS
UACC-257 melanoma = tested on: UACC-257 melanoma
UACC-62 melanoma = tested on: UACC-62 melanoma
UO-31 renal = tested on: UO-31 renal
NCI-H226 lung = tested on: NCI-H226 lung
SNB-75 CNS = tested on: SNB-75 CNS

**Q.** What does the source list for `O=C1O/C(=C\c2ccc(O)c(Br)c2)C(c2ccc(O)c(Cl)c2)=C1Br`?
**A.** TGI (786-0 renal): 40.2 µM; TGI (A498 renal): 37.3 µM; TGI (A549 NSCLC): > 100 µM; TGI (ACHN renal): 33.2 µM; TGI (BT-549 breast): 63.1 µM; TGI (CAKI-1 renal): 75.2 µM; TGI (CCRF-CEM leukemia): 51.1 µM; TGI (COLO 205 colon): 32 µM; TGI (DU-145 prostate): 43 µM; TGI (EKVX NSCLC): 49.3 µM; TGI (HCC-2998 colon): 16.7 µM; TGI (HCT-116 colon): 26.5 µM; TGI (HCT-15 colon): 25.3 µM; TGI (HL-60(TB) leukemia): > 100 µM; TGI (HOP-62 NSCLC): 40.9 µM; TGI (HOP-92 NSCLC): 35.7 µM; TGI (HS 578T breast): 70.9 µM; TGI (HT29 colon): 25.5 µM; TGI (IGROV1 ovarian): 47.2 µM; TGI (K-562 leukemia): 58.5 µM; TGI (KM12 colon): 31.2 µM; TGI (LOX IMVI melanoma): 71.9 µM; TGI (M14 melanoma): 36.5 µM; TGI (MALME-3M melanoma): 37.3 µM; TGI (MCF7 breast): 34.6 µM; TGI (MDA-MB-231 breast): > 100 µM; TGI (MDA-MB-435): 46.5 µM; TGI (MDA-N): 64.9 µM; TGI (MOLT-4 leukemia): > 100 µM; TGI (NCI-H23 lung): 54.1 µM; TGI (NCI-H460 lung): 48.4 µM; TGI (NCI-H522 lung): 28.6 µM; TGI (NCI/ADR-RES ovarian): 75.7 µM; TGI (OVCAR-3 ovarian): 33.7 µM; TGI (OVCAR-4 ovarian): 25.8 µM; TGI (OVCAR-5 ovarian): 33.4 µM; TGI (OVCAR-8 ovarian): 90 µM; TGI (PC-3 prostate): 32.7 µM; TGI (RPMI-8226 leukemia): 38.6 µM; TGI (RXF 393 renal): 40.9 µM; TGI (SF-268 CNS): 33.7 µM; TGI (SF-295 CNS): 30.4 µM; TGI (SF-539 CNS): 44 µM; TGI (SK-MEL-2 melanoma): 39.2 µM; TGI (SK-MEL-28 melanoma): 32 µM; TGI (SK-MEL-5 melanoma): 29.8 µM; TGI (SK-OV-3 ovarian): 40.9 µM; TGI (SN12C renal): 86.4 µM; TGI (SNB-19 CNS): 66.5 µM; TGI (SR leukemia): 28.1 µM; TGI (SW-620 colon): 34.1 µM; TGI (T-47D breast): 47 µM; TGI (TK-10 renal): 48.3 µM; TGI (U251 CNS): 29.8 µM; TGI (UACC-257 melanoma): 33.3 µM; TGI (UACC-62 melanoma): 31.6 µM; TGI (UO-31 renal): 77.4 µM

**Q.** Which results are given for `O=C1CC2(CCC(O)(c3ccccc3)C(C(=O)c3ccccc3)C2)C(=O)c2ccccc2N1` (stereo not drawn)?
**A.** TGI (A498 renal): > 100 µM; TGI (A549 NSCLC): > 100 µM; TGI (BT-549 breast): > 100 µM; TGI (CAKI-1 renal): > 100 µM; TGI (CCRF-CEM leukemia): > 100 µM; TGI (COLO 205 colon): > 100 µM; TGI (DU-145 prostate): > 100 µM; TGI (EKVX NSCLC): > 100 µM; TGI (HCC-2998 colon): > 100 µM; TGI (HCT-116 colon): > 100 µM; TGI (HCT-15 colon): > 100 µM; TGI (HL-60(TB) leukemia): > 100 µM; TGI (HOP-62 NSCLC): > 100 µM; TGI (HOP-92 NSCLC): > 100 µM; TGI (HS 578T breast): > 100 µM; TGI (HT29 colon): > 100 µM; TGI (IGROV1 ovarian): > 100 µM; TGI (K-562 leukemia): > 100 µM; TGI (LOX IMVI melanoma): > 100 µM; TGI (M14 melanoma): > 100 µM; TGI (MALME-3M melanoma): > 100 µM; TGI (MCF7 breast): > 100 µM; TGI (MDA-MB-231 breast): > 100 µM; TGI (MDA-MB-435): > 100 µM; TGI (MDA-N): > 100 µM; TGI (MOLT-4 leukemia): > 100 µM; TGI (NCI-H226 lung): > 100 µM; TGI (NCI-H23 lung): > 100 µM; TGI (NCI-H460 lung): > 100 µM; TGI (NCI/ADR-RES ovarian): > 100 µM; TGI (OVCAR-3 ovarian): > 100 µM; TGI (OVCAR-4 ovarian): > 100 µM; TGI (OVCAR-5 ovarian): > 100 µM; TGI (OVCAR-8 ovarian): > 100 µM; TGI (PC-3 prostate): > 100 µM; TGI (RXF 393 renal): > 100 µM; TGI (SF-268 CNS): > 100 µM; TGI (SF-295 CNS): > 100 µM; TGI (SF-539 CNS): > 100 µM; TGI (SK-MEL-2 melanoma): > 100 µM; TGI (SK-MEL-28 melanoma): > 100 µM; TGI (SK-MEL-5 melanoma): > 100 µM; TGI (SK-OV-3 ovarian): > 100 µM; TGI (SN12C renal): > 100 µM; TGI (SNB-19 CNS): > 100 µM; TGI (SNB-75 CNS): > 100 µM; TGI (SR leukemia): > 100 µM; TGI (SW-620 colon): > 100 µM; TGI (T-47D breast): > 100 µM; TGI (TK-10 renal): > 100 µM; TGI (U251 CNS): > 100 µM; TGI (UACC-257 melanoma): > 100 µM; TGI (UACC-62 melanoma): > 100 µM; TGI (UO-31 renal): > 100 µM

**Q.** Which results are given for `CC1=NN(C(=O)CC(=O)Nc2ccccc2)C(=O)C1N=Nc1ccc(C(=O)O)cc1` (stereo not drawn)?
**A.** TGI (786-0 renal): > 100 µM; TGI (A498 renal): > 100 µM; TGI (A549 NSCLC): > 100 µM; TGI (ACHN renal): > 100 µM; TGI (BT-549 breast): > 100 µM; TGI (CAKI-1 renal): > 100 µM; TGI (CCRF-CEM leukemia): > 100 µM; TGI (COLO 205 colon): > 100 µM; TGI (DU-145 prostate): > 100 µM; TGI (EKVX NSCLC): > 100 µM; TGI (HCC-2998 colon): > 100 µM; TGI (HCT-116 colon): > 100 µM; TGI (HCT-15 colon): > 100 µM; TGI (HL-60(TB) leukemia): > 100 µM; TGI (HOP-62 NSCLC): > 100 µM; TGI (HOP-92 NSCLC): 87.1 µM; TGI (HS 578T breast): > 100 µM; TGI (HT29 colon): > 100 µM; TGI (IGROV1 ovarian): > 100 µM; TGI (K-562 leukemia): > 100 µM; TGI (KM12 colon): > 100 µM; TGI (LOX IMVI melanoma): > 100 µM; TGI (M14 melanoma): > 100 µM; TGI (MALME-3M melanoma): > 100 µM; TGI (MCF7 breast): > 100 µM; TGI (MDA-MB-231 breast): > 100 µM; TGI (MDA-MB-435): > 100 µM; TGI (MDA-N): > 100 µM; TGI (MOLT-4 leukemia): > 100 µM; TGI (NCI-H23 lung): > 100 µM; TGI (NCI-H460 lung): > 100 µM; TGI (NCI-H522 lung): > 100 µM; TGI (NCI/ADR-RES ovarian): > 100 µM; TGI (OVCAR-3 ovarian): > 100 µM; TGI (OVCAR-4 ovarian): > 100 µM; TGI (OVCAR-5 ovarian): > 100 µM; TGI (OVCAR-8 ovarian): > 100 µM; TGI (PC-3 prostate): > 100 µM; TGI (RPMI-8226 leukemia): > 100 µM; TGI (RXF 393 renal): > 100 µM; TGI (SF-268 CNS): > 100 µM; TGI (SF-295 CNS): > 100 µM; TGI (SF-539 CNS): > 100 µM; TGI (SK-MEL-2 melanoma): > 100 µM; TGI (SK-MEL-28 melanoma): > 100 µM; TGI (SK-MEL-5 melanoma): > 100 µM; TGI (SN12C renal): > 100 µM; TGI (SNB-19 CNS): > 100 µM; TGI (SNB-75 CNS): > 100 µM; TGI (SR leukemia): > 100 µM; TGI (SW-620 colon): > 100 µM; TGI (T-47D breast): > 100 µM; TGI (TK-10 renal): > 100 µM; TGI (U251 CNS): > 100 µM; TGI (UACC-257 melanoma): > 100 µM; TGI (UACC-62 melanoma): > 100 µM; TGI (UO-31 renal): > 100 µM

Source: PubChem BioAssay (NCI)
